In patent US20130072506A1, “6,8-DISUBSTITUTED PURINE COMPOSITIONS” (priority 2011, published 2013):
Where two headings read alike, the source gives them in different places.

What was measured:
[1] = test system: osteosarcoma cell line HOS; assay: In vitro cytotoxic activity (metabolisation of Calcein AM); type: cell-based, human; conditions: HOS cells, 72 hours incubation, called GI50, read-out: Cell line tested/IC50 (μmol/L) HOS
Source text: (§1) In vitro Cytotoxic Activity (Metabolisation of Calcein AM). Because toxic compounds negatively influence metabolic processes of cells, many standard cytotoxicity assays are based on measurement of metabolisation rate of various artificial substrates. Resulting product is then quantified, for example, by means of spectrometry. The assays can be easily modified for use in 96-well plates. For evaluation of cytotoxicity of the 6,8-disubstituted purines of this invention, a microtiter assay based on quantification of metabolisation of Calcein AM was used. The assay is widely used in drug screening programs and in chemosensitivity testing. In live cells, Calcein AM is enzymatically hydrolysed and accumulation of resulting calcein is manifested by green fluorescence.
(§2) The following human cell lines were used for routine screening of the compounds: normal diploid fibroblasts BJ, T-lymphoblastic leukemia cell line CEM, promyelocytic leukemia cell line HL-60, erytroid leukemia cell line K-562, breast carcinoma cell line MCF-7, osteosarcoma cell line HOS and melanoma cell line G-361. The cells were maintained in Nunc/Corning 80 cm^2 plastic tissue culture flasks and cultured in cell culture medium (DMEM with 5 g/l glucose, 2 mM glutamine, […] penicillin, 100 mmg/ml streptomycin, 10% fetal calf serum and sodium bicarbonate).
(§3) The cell suspensions were prepared and diluted according to the particular cell type and the expected target cell density (2.500-30.000 cells per well based on cell growth characteristics) and pipetted (80 μl) into 96-well plates. Inoculates were allowed a pre-incubation period of 24 hours at 37° C. and 5% CO2 for stabilization. Tested compound was added in total volume of […] of water at time zero. Usually, test compound was evaluated at six 3-fold dilutions. In routine testing, the highest concentration tested was 100 μM, but it could have been adjusted because of limited solubility of a compound. All drug concentrations were tested in triplicates.
(§4) Incubations of cells with the test compounds lasted for 72 hours at 37° C., in 5% CO2 atmosphere and 100% humidity. At the end of incubation period Calcein AM in PBS was added into final concentration of 1 μg/ml. After another 1 hour of incubation fluorescence (FD) was measured with the Labsystem FIA Reader Fluoroscan Ascent (UK). Growth inhibition (GI) was estimated using the following equitation: GI=(mean FDdrug exposed wells−mean FDblank)/(mean FDcontrol wells−mean FDblank)×100%. The GI50 value, the drug concentration causing 50% reduction of Calcein AM conversion, was calculated from the obtained dose response curves.

[2] = test system: breast carcinoma cell line MCF-7; assay: as above; type: cell-based, human; conditions: MCF7 cells, 72 hours incubation, called GI50, read-out: Cell line tested/IC50 (μmol/L) MCF7
Source text: as §1, §2, §3, §4

[3] = test system: melanoma cell line G-361; assay: as above; type: cell-based, human; conditions: G-361 cells, 72 hours incubation, called GI50, read-out: Cell line tested/IC50 (μmol/L) G-361
Source text: as §1, §2, §3, §4

[4] = test system: T-lymphoblastic leukemia cell line CEM; assay: as above; type: cell-based, human; conditions: CEM cells, 72 hours incubation, called GI50, read-out: Cell line tested/IC50 (μmol/L) CEM
Source text: as §1, §2, §3, §4

[5] = test system: erytroid leukemia cell line K-562; assay: as above; type: cell-based, human; conditions: 72 hours incubation, called GI50, read-out: Cell line tested/IC50 (μmol/L) K-562
Source text: as §1, §2, §3, §4

[6] = test system: normal diploid fibroblasts BJ; assay: as above; type: cell-based, human; conditions: BJ cells, 72 hours incubation, called GI50, read-out: Cell line tested/IC50 (μmol/L) BJ
Source text: as §1, §2, §3, §4

[7] = test system: Human diploid fibroblast BJ; assay: In vitro cytotoxic activity (metabolisation of MTT); type: cell-based; conditions: 72 hours, BJ passage 18-22
Description: In vitro Cytotoxic Activity (metabolisation of Mtt). MTT ([…]) assay is a standard colorimetric assay for evaluation of cytotoxicity. Mitochondrial dehydrogenase activity converts yellow MTT into violet formazan which is measured by means of spectrometry.
Human diploid fibroblast BJ (passage 18-22) were seeded into 96-well plate (5.000 cells per well). After 6 hours cultivation medium (DMEM with 5 g/l glucose, 2 mM glutamine, 100 U/ml penicillin, 100 mmg/ml streptomycin, 10% fetal calf serum and sodium bicarbonate) was replaced with the cultivation medium containing test compounds in concentration range of 0-200 μM. Highest concentration was adjusted if the solubility of the compound was limiting. Every concentration was tested in pentaplicate. MTT was added to the cells after 72 hours incubation (final concentration 0.5 mg/ml) and incubation continued for another 3 hours. MTT was solubilised by DMSO and absorbance at 570 nm was measured. Growth inhibition (GI) was estimated using the following equitation: GI=(mean A drug exposed wells−mean Ablank/mean Acontrol wells−mean Ablank)×100%. The GI20 value, the drug concentration causing 20% decrease in mitochondrial dehydrogenase activity, was calculated from the obtained dose response curves.

[8] = Homo sapiens, K562, K-562 cells

Question: Which melting point does the source give for `CN(C)c1nc2ncnc(NCc3ccco3)c2[nH]1` [Compound 61, 8-Dimethylamino-6-furfurylaminopurine] here?
Answer: 245 to 246 °C

Question: For `Cc1cccc(Nc2ncnc3nc(N(C)C)[nH]c23)c1` [Compound 81], which IC50 [1] is on record?
Answer: > 50 µmol/L

Question: What about the IC50 [2] of the same molecule?
Answer: > 50 µmol/L

Question: What about the IC50 [3] of the same molecule?
Answer: > 50 µmol/L

Question: What about the IC50 [4] of the same molecule?
Answer: > 50 µmol/L

Question: And the IC50 ([5]; K-562 cells)?
Answer: > 50 µmol/L

Question: And the IC50 [6]?
Answer: > 50 µmol/L

Question: What about the GI20 [7] of the same molecule?
Answer: >100 µM

Question: Which results are given for `CC(=CCNc1ncnc2nc(N)[nH]c12)CO` [Compound 84]?
Answer: IC50 [1]: > 50 µmol/L; IC50 [2]: > 50 µmol/L; IC50 [3]: > 50 µmol/L; IC50 [4]: > 50 µmol/L; IC50 ([5]; K-562 cells): > 50 µmol/L; IC50 [6]: > 50 µmol/L; GI20 [7]: >100 µM

Question: For `C/C(=C\CNc1ncnc2nc(N)[nH]c12)CO` [Compound 85, 6-(E)-(4-hydroxy-3-methylbut-2-en-1-ylamino)-8-aminopurine], which IC50 ([1]; Homo sapiens) is on record?
Answer: > 50 µmol/L

Question: What about the IC50 ([2]; Homo sapiens) of the same molecule?
Answer: > 50 µmol/L

Question: What about the IC50 ([3]; Homo sapiens) of the same molecule?
Answer: > 50 µmol/L

Question: What about the IC50 ([4]; Homo sapiens, CCRF-CEM) of the same molecule?
Answer: > 50 µmol/L

Question: And the IC50 [5, 8]?
Answer: > 50 µmol/L

Question: And the IC50 ([6]; Homo sapiens)?
Answer: > 50 µmol/L

Question: And the GI20 [7]?
Answer: >100 µM

Question: For `CC(CO)CCNc1ncnc2nc(N)[nH]c12` (stereo not shown) [Compound 86, 6-(4-hydroxy-3-methylbutylamino)-8-aminopurine], which IC50 ([1]; Homo sapiens) is on record?
Answer: > 50 µmol/L

Question: What about the IC50 ([2]; Homo sapiens) of the same molecule?
Answer: > 50 µmol/L

Question: And the IC50 ([3]; Homo sapiens)?
Answer: > 50 µmol/L

Question: And the IC50 ([4]; Homo sapiens, CCRF-CEM)?
Answer: > 50 µmol/L

Question: What about the IC50 [5, 8] of the same molecule?
Answer: > 50 µmol/L

Question: And the IC50 ([6]; Homo sapiens)?
Answer: > 50 µmol/L

Question: And the GI20 [7]?
Answer: >100 µM

Question: What does the source list for `Nc1nc2ncnc(NCc3ccccc3F)c2[nH]1` [Compound 88]?
Answer: IC50 [1]: > 50 µmol/L; IC50 [2]: > 50 µmol/L; IC50 [3]: > 50 µmol/L; IC50 [4]: > 50 µmol/L; IC50 ([5]; K-562 cells): > 50 µmol/L; IC50 [6]: > 50 µmol/L; GI20 [7]: >100 µM

Question: With `Nc1nc2ncnc(NCc3cccc(F)c3)c2[nH]1` [Compound 89] as the molecule, how does the IC50 [1] read?
Answer: > 50 µmol/L

Question: What about the IC50 [2] of the same molecule?
Answer: > 50 µmol/L

Question: And the IC50 [3]?
Answer: > 50 µmol/L

Question: And the IC50 [4]?
Answer: > 50 µmol/L

Question: What about the IC50 ([5]; K-562 cells) of the same molecule?
Answer: > 50 µmol/L

Question: What about the IC50 [6] of the same molecule?
Answer: > 50 µmol/L

Question: What about the GI20 [7] of the same molecule?
Answer: >100 µM

Question: For `Nc1nc2ncnc(NCc3ccc(F)cc3)c2[nH]1` [Compound 90], which IC50 [1] is on record?
Answer: > 50 µmol/L

Question: And the IC50 [2]?
Answer: > 50 µmol/L

Question: And the IC50 [3]?
Answer: > 50 µmol/L

Question: And the IC50 [4]?
Answer: > 50 µmol/L

Question: What about the IC50 ([5]; K-562 cells) of the same molecule?
Answer: > 50 µmol/L

Question: And the IC50 [6]?
Answer: > 50 µmol/L

Question: What about the GI20 [7] of the same molecule?
Answer: >100 µM

Question: For `Nc1nc2ncnc(NCc3cccc(Cl)c3)c2[nH]1` [Compound 91], which IC50 [1] is on record?
Answer: > 50 µmol/L

Question: What about the IC50 [2] of the same molecule?
Answer: > 50 µmol/L

Question: What about the IC50 [3] of the same molecule?
Answer: > 50 µmol/L

Question: What about the IC50 [4] of the same molecule?
Answer: > 50 µmol/L

Question: And the IC50 ([5]; K-562 cells)?
Answer: > 50 µmol/L

Question: What about the IC50 [6] of the same molecule?
Answer: > 50 µmol/L

Question: And the GI20 [7]?
Answer: >100 µM

Question: For `Nc1nc2ncnc(NCc3ccc(Cl)cc3)c2[nH]1` [Compound 92], which IC50 [1] is on record?
Answer: > 50 µmol/L

Question: And the IC50 [2]?
Answer: > 50 µmol/L

Question: What about the IC50 [3] of the same molecule?
Answer: > 50 µmol/L

Question: What about the IC50 [4] of the same molecule?
Answer: > 50 µmol/L

Question: And the IC50 ([5]; K-562 cells)?
Answer: > 50 µmol/L

Question: And the IC50 [6]?
Answer: > 50 µmol/L

Question: And the GI20 [7]?
Answer: >100 µM

Question: Which IC50 [1] does the source give for `COc1ccccc1CNc1ncnc2nc(N)[nH]c12` [Compound 97] here?
Answer: > 50 µmol/L

Question: And the IC50 [2]?
Answer: > 50 µmol/L

Question: And the IC50 [3]?
Answer: > 50 µmol/L

Question: What about the IC50 [4] of the same molecule?
Answer: > 50 µmol/L

Question: What about the IC50 ([5]; K-562 cells) of the same molecule?
Answer: > 50 µmol/L

Question: And the IC50 [6]?
Answer: > 50 µmol/L

Question: What about the GI20 [7] of the same molecule?
Answer: >100 µM

Question: With `COc1cccc(CNc2ncnc3nc(N)[nH]c23)c1` [Compound 98] as the molecule, how does the IC50 [1] read?
Answer: > 50 µmol/L

Question: What about the IC50 [2] of the same molecule?
Answer: > 50 µmol/L

Question: What about the IC50 [3] of the same molecule?
Answer: > 50 µmol/L

Question: And the IC50 [4]?
Answer: > 50 µmol/L

Question: What about the IC50 ([5]; K-562 cells) of the same molecule?
Answer: > 50 µmol/L

Question: What about the IC50 [6] of the same molecule?
Answer: > 50 µmol/L

Question: What about the GI20 [7] of the same molecule?
Answer: >100 µM

Question: For `COc1ccc(CNc2ncnc3nc(N)[nH]c23)cc1` [Compound 99], which IC50 [1] is on record?
Answer: > 50 µmol/L

Question: And the IC50 [2]?
Answer: > 50 µmol/L

Question: And the IC50 [3]?
Answer: > 50 µmol/L

Question: And the IC50 [4]?
Answer: > 50 µmol/L

Question: What about the IC50 ([5]; K-562 cells) of the same molecule?
Answer: > 50 µmol/L

Question: And the IC50 [6]?
Answer: > 50 µmol/L

Question: What about the GI20 [7] of the same molecule?
Answer: >100 µM
